Experimental data as given in patent publication US7541367B2, “3-benzoimidazolyl-pyrazolopyridines useful in treating kinase disorders” (Janssen Pharmaceutica, N.V., priority 2005, dated 2009).

What was measured:
[1] = target: T1, CDK1 (Homo sapiens, UniProt P06493); test: CDK-1 kinase screening assay (33P-ATP FlashPlate); format: biochemical; conditions: human CDK1 with cyclin B; 10 μM ATP; 1 hr at 30° C
T1 construct: purchased New England Biolabs, Beverly, Mass; 6020; host or cells: insect cells

[2] = target: T2, VEGF-R2 (Rattus norvegicus, UniProt O08775); test: VEGF-R2 kinase screening assay (33P-ATP FlashPlate); format: biochemical; conditions: rat VEGF-R2 kinase domain; 10 μM ATP; 1 hr at 30° C;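 further: Read-out is ³³P incorporation from ³³P-γ-ATP into biotinylated peptide substrate captured on streptavidin FlashPlate, counted by scintillation, 1% DMSO final, inhibition scaled between per-plate maximum and minimum signals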
T2 construct: polyhistidine (N)

[3] = target: T3, HER2 (Homo sapiens, UniProt P04626); test: HER2 kinase screening assay (33P-ATP FlashPlate); format: biochemical; conditions: GST-HIS6 HER-2 aa 679 to 1255; 10 μM ATP; 1 hr at 30° C;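 further: Biotin-poly(GT) 4:1 peptide captured on streptavidin FlashPlate, 33P transfer from γ-ATP read by scintillation counting, lower incorporation means inhibition, 1% DMSO final, 100 µL reaction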
T3 construct: GST (Glutathione-S-Transferase) (N); HIS6 (N); thrombin cleavage site (N); purchased Proqinase, Freiburg, Germany

[4] = target: T4, Aurora-A (Mus musculus, UniProt P97477); test: Aurora-A kinase screening assay (33P-ATP FlashPlate); format: biochemical; conditions: 10 μM ATP, 1 hr at 30° C;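 further: His-tagged mouse Aurora-A phosphorylating a biotinylated peptide captured on streptavidin plates, read as 33P uptake by scintillation counting, 1% DMSO, inhibition scaled between per-plate maximum and minimum signals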
T4 construct: polyhistidine (N)
T4 sequence (P97477 1-395): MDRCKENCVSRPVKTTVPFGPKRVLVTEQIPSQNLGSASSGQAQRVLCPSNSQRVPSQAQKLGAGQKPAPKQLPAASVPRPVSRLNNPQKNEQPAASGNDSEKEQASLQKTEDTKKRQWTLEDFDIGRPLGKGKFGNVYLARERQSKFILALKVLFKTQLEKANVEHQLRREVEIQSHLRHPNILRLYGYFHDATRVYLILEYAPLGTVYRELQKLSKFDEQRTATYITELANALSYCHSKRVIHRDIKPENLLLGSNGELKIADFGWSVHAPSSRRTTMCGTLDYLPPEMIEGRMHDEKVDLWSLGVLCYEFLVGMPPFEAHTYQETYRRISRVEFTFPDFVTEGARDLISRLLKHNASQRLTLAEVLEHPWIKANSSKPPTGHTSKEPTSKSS

[5] = target: T5, RET (Homo sapiens, UniProt P07949); test: RET kinase screening assay (33P-ATP FlashPlate); format: biochemical; conditions: human RET kinase domain; 10 μM ATP; 1 hr at 30° C;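 further: biotinylated peptide substrate captured on streptavidin FlashPlate, 33P phosphate transfer read by scintillation counting, 1% DMSO, lower incorporation means inhibition, percent relative to per-plate maximum and minimum signals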
T5 construct: polyhistidine (N)
T5 sequence (P07949 658-1114 limits assumed): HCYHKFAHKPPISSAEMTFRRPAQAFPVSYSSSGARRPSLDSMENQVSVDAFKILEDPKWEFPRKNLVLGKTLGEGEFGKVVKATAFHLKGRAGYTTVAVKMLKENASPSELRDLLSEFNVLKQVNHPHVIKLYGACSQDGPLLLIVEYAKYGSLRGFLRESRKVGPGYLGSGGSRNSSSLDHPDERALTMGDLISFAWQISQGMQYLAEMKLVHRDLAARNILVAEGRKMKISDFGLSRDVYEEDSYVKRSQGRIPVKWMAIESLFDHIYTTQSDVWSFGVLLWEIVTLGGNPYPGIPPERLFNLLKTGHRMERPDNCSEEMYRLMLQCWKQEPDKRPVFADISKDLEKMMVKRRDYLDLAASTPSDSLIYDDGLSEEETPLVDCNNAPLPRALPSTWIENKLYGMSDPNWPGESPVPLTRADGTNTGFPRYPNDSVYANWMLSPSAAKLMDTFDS

[6] = target: T6, c-Src kinase (Homo sapiens, UniProt P12931); test: c-Src Kinase Assay; format: biochemical; conditions: 5 μM ATP
T6 construct: purchased Upstate Biotechnology, Lake Placid, N.Y
Summary of the method: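 Human c-Src phosphorylated Cdc2 peptide (100 μM) […]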

[7] = target: T7, Lyn kinase (Homo sapiens, UniProt P07948); test: Lyn Kinase Assay; format: biochemical; conditions: 5 μM ATP
T7 construct: purchased Upstate Biotechnology, Lake Placid, N.Y
Summary of the method: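 Recombinant human Lyn kinase in pH 7.5 Tris buffer with EGTA, vanadate, β-mercaptoethanol and BSA reacted with compound for 40 min at 30° C. The radiolabelled product was captured on P30 filtermats after phosphoric acid stop and counted by scintillation. IC50 came from percent inhibition versus log concentration, using plate maximum/minimum signals.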

[8] = tested on: HeLa cervical adenocarcinoma; test: Cell Proliferation Inhibition Assay (14C-thymidine incorporation), HeLa; format: cell-based; conditions: Homo sapiens, HeLa, HeLa cells;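 further: test compound in DMSO added to cells seeded in scintillating 96-well plates, DMSO-only wells as control, uptake of methyl 14C-thymidine into new DNA counted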
[9] = tested on: A375 malignant melanoma; test: Cell Proliferation Inhibition Assay (14C-thymidine incorporation), A375; format: cell-based; conditions: Homo sapiens, A-375, A375 cells;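 further: proliferation measured by radiolabelled thymidine uptake into new DNA, counted in scintillating 96-well plates, compound-treated wells compared with DMSO-only control wells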
[10] = tested on: HCT-116 colon carcinoma; test: Cell Proliferation Inhibition Assay (14C-thymidine incorporation), HCT-116; format: cell-based; conditions: Homo sapiens, HCT-116, HCT-116 cells;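 further: proliferation measured as methyl 14C-thymidine uptake into new DNA, counted in 96-well scintillating microplates, compared with DMSO-only control wells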
[11] = tested on: Human melanoma A375 cells; test: In Vivo Models - Inhibition of Tumor Growth (A375 xenograft); conditions: female athymic mice, 25 mg/kg i.p. daily
Procedure: The ability of test compounds to inhibit unregulated growth of human tumor cells in vivo was evaluated by implanting human tumor cells into the hindflank of athymic mice, administering a test compound and then quantifying any change in tumor size.
Certain compounds at particular doses produced adverse effects in this model. One skilled in the art would be able to establish the effective amount of compound required to achieve an effective therapeutic window.
Human melanoma A375 cells were implanted subcutaneously into the hindflank of female athymic mice (Charles River) and allowed to grow for 6-10 days. After a measurable tumor was established (as determined by baseline caliper measurement), the animal was administered an intraperitoneal (i.p.) dose of the test compound daily at 25 mg/kg for the length of the study. Tumor size was measured at certain intervals as shown in Table 5 and the degree of inhibition for a test compound was determined by comparing the reduction in tumor volume for drug-treated animals to that of untreated and vehicle-treated animals. The vehicle used was 20% hydroxypropyl β-cyclodextran.

T7 sequence (P07948 whole entry): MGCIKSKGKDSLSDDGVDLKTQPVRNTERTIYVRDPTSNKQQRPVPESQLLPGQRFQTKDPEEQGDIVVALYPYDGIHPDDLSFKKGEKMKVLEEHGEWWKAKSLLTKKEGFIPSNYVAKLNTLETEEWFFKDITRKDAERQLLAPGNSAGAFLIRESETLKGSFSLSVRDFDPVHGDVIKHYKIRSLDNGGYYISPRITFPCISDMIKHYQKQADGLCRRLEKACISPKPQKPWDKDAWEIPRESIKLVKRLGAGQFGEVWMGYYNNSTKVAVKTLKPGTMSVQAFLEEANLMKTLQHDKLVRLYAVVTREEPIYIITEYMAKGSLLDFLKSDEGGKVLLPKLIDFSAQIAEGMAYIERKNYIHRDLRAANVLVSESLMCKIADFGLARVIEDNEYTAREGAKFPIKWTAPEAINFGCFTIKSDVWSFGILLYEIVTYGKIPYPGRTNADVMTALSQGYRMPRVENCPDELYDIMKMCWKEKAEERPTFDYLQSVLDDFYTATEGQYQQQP
T3 sequence (P04626 679-1255): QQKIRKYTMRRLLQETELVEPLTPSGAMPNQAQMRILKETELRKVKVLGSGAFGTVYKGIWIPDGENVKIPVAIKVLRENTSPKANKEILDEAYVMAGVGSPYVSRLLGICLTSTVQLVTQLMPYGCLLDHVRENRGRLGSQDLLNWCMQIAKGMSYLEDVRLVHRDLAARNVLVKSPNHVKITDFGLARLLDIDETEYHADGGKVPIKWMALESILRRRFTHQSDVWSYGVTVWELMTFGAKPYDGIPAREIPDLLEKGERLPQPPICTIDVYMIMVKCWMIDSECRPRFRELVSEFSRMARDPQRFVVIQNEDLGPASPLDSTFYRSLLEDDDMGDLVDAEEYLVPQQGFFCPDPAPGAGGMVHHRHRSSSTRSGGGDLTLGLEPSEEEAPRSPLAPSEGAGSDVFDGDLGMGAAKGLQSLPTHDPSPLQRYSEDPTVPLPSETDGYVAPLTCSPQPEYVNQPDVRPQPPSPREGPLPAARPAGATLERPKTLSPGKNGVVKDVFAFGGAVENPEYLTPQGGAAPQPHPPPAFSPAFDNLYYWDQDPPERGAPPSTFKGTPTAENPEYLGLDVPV
T1 sequence (P06493 whole entry): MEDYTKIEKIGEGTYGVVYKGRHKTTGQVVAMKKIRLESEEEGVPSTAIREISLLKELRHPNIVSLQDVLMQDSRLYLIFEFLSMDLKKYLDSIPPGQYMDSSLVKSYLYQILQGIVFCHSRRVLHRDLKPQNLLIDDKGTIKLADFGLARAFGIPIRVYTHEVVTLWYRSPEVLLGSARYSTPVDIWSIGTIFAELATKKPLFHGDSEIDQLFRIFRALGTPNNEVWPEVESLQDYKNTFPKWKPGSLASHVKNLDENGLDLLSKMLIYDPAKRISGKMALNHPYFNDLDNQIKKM
T1 sequence (P14635 whole entry partner): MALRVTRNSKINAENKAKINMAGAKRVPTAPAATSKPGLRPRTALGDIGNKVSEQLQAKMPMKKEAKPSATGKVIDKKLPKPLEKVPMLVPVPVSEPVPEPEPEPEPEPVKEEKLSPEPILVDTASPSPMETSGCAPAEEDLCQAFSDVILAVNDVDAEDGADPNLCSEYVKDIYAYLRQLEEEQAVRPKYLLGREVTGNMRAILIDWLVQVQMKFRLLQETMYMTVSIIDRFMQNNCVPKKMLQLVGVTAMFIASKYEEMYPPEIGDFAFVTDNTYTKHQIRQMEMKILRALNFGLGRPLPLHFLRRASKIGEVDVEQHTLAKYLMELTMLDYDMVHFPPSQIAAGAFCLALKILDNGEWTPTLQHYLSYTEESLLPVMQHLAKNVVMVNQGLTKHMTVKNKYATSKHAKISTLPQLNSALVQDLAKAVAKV
T6 sequence (P12931 whole entry): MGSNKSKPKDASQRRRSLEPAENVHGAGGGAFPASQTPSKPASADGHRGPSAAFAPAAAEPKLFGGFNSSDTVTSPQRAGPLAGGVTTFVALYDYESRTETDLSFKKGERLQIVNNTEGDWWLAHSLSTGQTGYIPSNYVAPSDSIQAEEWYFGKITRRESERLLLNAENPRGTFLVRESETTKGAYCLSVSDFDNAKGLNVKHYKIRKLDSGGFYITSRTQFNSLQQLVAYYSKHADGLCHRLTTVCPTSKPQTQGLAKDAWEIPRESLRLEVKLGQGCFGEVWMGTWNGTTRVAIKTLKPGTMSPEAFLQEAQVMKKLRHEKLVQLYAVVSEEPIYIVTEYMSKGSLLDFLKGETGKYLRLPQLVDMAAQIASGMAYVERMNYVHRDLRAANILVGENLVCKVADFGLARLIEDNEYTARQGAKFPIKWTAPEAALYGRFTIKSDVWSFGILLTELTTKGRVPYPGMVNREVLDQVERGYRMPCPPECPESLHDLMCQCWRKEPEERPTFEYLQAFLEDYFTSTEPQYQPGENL
T2 sequence (O08775 786-1343): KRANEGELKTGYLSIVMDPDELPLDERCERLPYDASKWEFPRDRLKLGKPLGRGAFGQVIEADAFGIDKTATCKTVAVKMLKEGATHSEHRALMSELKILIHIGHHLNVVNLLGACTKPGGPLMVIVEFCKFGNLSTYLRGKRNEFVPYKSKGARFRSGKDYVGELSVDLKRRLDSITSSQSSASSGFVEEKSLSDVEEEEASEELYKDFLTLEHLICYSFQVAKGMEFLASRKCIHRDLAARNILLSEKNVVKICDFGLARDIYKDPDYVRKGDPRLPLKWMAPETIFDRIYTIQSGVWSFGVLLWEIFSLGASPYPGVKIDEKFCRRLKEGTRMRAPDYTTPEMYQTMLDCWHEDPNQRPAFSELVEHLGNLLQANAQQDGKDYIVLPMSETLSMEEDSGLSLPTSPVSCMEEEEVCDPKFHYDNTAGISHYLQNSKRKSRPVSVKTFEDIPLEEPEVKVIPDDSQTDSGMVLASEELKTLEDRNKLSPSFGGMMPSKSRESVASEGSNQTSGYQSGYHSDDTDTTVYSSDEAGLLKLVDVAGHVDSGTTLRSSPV

Row | IC50 [1] [nM] | IC50 [2] [nM] | IC50 [3] [nM] | IC50 [4] [nM] | IC50 [5] [nM] | IC50 [6] [nM] | IC50 [7] [nM] | IC50 [8] [nM] | IC50 [9] [nM] | IC50 [10] [nM] | SMILES | Tumor volume ([11]; Day 1) [mm^3] | Tumor volume ([11]; Day 4) [mm^3] | Tumor volume ([11]; Day 8) [mm^3] | Tumor volume ([11]; Day 11) [mm^3] | Tumor volume ([11]; Day 14) [mm^3]
1 | 375 | ~1000 | > 100000 | > 10000 | > 100000 | 278 | 9010 | 2260 | 150 | 283 | COCc1cccc2[nH]c(-c3n[nH]c4ncc(-c5ccc(F)nc5)cc34)nc12 [Cpd 71, 5-(6-fluoro-pyridin-3-yl)-3-(4-methoxymethyl-1H-benzoimidazol-2-yl)-1H-pyrazolo[3,4-b]pyridine] | – | – | – | – | –
2 | 23.6 | > 100000 | > 100000 | > 10000 | > 100000 | 375 | 1050 | 640 | 10.2 | 29.2 | COCc1cccc2[nH]c(-c3n[nH]c4ncc(-c5cncc(C=NO)c5)cc34)nc12 [Cpd 72, 5-[3-(4-methoxymethyl-1H-benzoimidazol-2-yl)-1H-pyrazolo[3,4-b]pyridin-5-yl]-pyridine-3-carbaldehyde oxime] | – | – | – | – | –
3 | 7.4 | – | – | 3990 | – | – | – | – | – | – | CCCNCc1cncc(-c2cnc3[nH]nc(-c4nc5c(COC)cccc5[nH]4)c3c2)c1 [Cpd 78, {5-[3-(4-methoxymethyl-1H-benzoimidazol-2-yl)-1H-pyrazolo[3,4-b]pyridin-5-yl]-pyridin-3-ylmethyl}-propyl-amine] | 95.4 | 113.6 | 329.3 | 558 | 856.9
4 | 875 | 2080 | > 100000 | > 10000 | > 100000 | 211 | 192 | > 10000 | 397 | 2310 | COCc1cccc2[nH]c(-c3n[nH]c4ncc(-c5cncc(CNC6CCN(C)CC6)c5)cc34)nc12 [Cpd 80, {5-[3-(4-methoxymethyl-1H-benzoimidazol-2-yl)-1H-pyrazolo[3,4-b]pyridin-5-yl]-pyridin-3-ylmethyl}-(1-methyl-piperidin-4-yl)-amine] | – | – | – | – | –
5 | 3.05 | 25 | 1070 | 283 | – | 712 | 415 | 474 | 627 | 543 | CCNCc1cncc(-c2cnc3[nH]nc(-c4nc5cc(N6CCN(C)CC6)ccc5[nH]4)c3c2)c1 [Cpd 82, ethyl-(5-{3-[5-(4-methyl-piperazin-1-yl)-1H-benzoimidazol-2-yl]-1H-pyrazolo[3,4-b]pyridin-5-yl}-pyridin-3-ylmethyl)-amine] | 97.7 | 222 | 455.5 | 742.4 | 1323.6
6 | 32.2 | ~100 | 1850 | 87.3 | > 1000 | 5.18 | 9.65 | 1880 | 2530 | 739 | CN1CCN(c2ccc3[nH]c(-c4n[nH]c5ncc(-c6cncc(CN7CCOCC7)c6)cc45)nc3c2)CC1 [Cpd 84, 3-[5-(4-methyl-piperazin-1-yl)-1H-benzoimidazol-2-yl]-5-(5-morpholin-4-ylmethyl-pyridin-3-yl)-1H-pyrazolo[3,4-b]pyridine] | – | – | – | – | –
7 | 0.7 | 154 | 5120 | 803 | – | – | – | 58.6 | 51.2 | 93.7 | CCNCc1cncc(-c2cnc3[nH]nc(-c4nc5ccc(F)cc5[nH]4)c3c2)c1 [Cpd 106, ethyl-{5-[3-(6-fluoro-1H-benzoimidazol-2-yl)-1H-pyrazolo[3,4-b]pyridin-5-yl]-pyridin-3-ylmethyl}-amine] | 95.4 | 94.7 | 318.6 | 558.3 | 896.8
8 | 1.1 | ~100 | 3600 | > 1000 | – | – | – | 138 | 46.1 | 94.7 | CCNCc1cncc(-c2cnc3[nH]nc(-c4nc5cc(F)c(F)cc5[nH]4)c3c2)c1 [Cpd 107, {5-[3-(5,6-difluoro-1H-benzoimidazol-2-yl)-1H-pyrazolo[3,4-b]pyridin-5-yl]-pyridin-3-ylmethyl}-ethyl-amine] | 95.4 | – | – | – | –
